As usually defined, the IC50 is the concentration that gives 50% inhibition.

The test system of the test is HEK-Blue TGFβ cell. The test is described as follows: HEK-Blue TGFβ cellular reporter gene assay (SEAP readout). To be noted: HEK-Blue TGFβ cells stimulated with TGF-β, 22-23 h incubation, SEAP read at 630 nm. Format: cell-based. As to the method:
HEK-Blue TGFβ Cellular Reporter Gene Assay:
HEK-Blue TGFβ cell was purchased from Invivogen. Cell suspension of 2.5×10^5 cells/ml was prepared using Test Medium (DMEM containing 0.5% v/v heat-inactivated FBS). TGF-β working solution (6 ng/ml) was obtained through diluting TGF-β stock solution (10 μg/ml) by Test Medium before use. Eight different concentrations of all compounds were obtained by 3× gradient dilution method using TGF-β working solution. Add 100 μl of Test Medium (Vehicle) or test article or TGF-β working solution per well of a flat-bottom 96-well plate. Add 100 μl of HEK-Blue TGF-β cell suspension per well. Incubate the plate at 37° C. in a CO2 incubator for 22-23 h. Add 150 μl of resuspended QUANTI-Blue per well of a new flat-bottom 96-well plate. Add 30 μl of induced HEK-Blue TGF-β cells supernatant. Avoid pipetting at the bottom of wells. Incubate the plate at 37° C. incubator for 30-40 min. Determine secreted embryonic alkaline phosphatase (SEAP) levels using a spectrophotometer at 630 nm.
The inhibition was calculated using the equation: […]

In the case of `O=C(O)C(F)(F)c1cccc(Nc2cc(Oc3cn(C4CC4)nc3-c3ccccc3)ccn2)c1` [Example 132, 2-(3-((4-((1-cyclopropyl-3-phenyl-1H-pyrazol-4-yl)oxy)pyridin-2-yl)amino)phenyl)-2,2-difluoroacetic acid], the IC50 is more than 10000 nM. `CCc1ccc(Oc2ccnc(Nc3cccc(CC(C)(C)C(=O)O)c3)c2)c(C)n1` [Example 133, 3-(3-((4-((6-ethyl-2-methylpyridin-3-yl)oxy)pyridin-2-yl)amino)phenyl)-2,2-dimethylpropanoic acid] had a half-inhibitory concentration (IC50) of 28 nM. `Cc1cc(Nc2cc(Oc3cc(C)c(C)nc3-c3ccccn3)ccn2)cc(C(C)(C)C(=O)O)c1` [Example 134] showed an IC50 of 78 nM. `Cc1ccc(Nc2cc(Oc3cc(C)c(C)nc3-c3ccccn3)ccn2)cc1C(C)(C)C(=O)O` [Example 136] yielded an IC50 of 100 nM. As to `Cc1cc(Oc2ccnc(Nc3cccc(CC(C)(C)C(=O)O)c3)c2)c(-c2ccccn2)nc1C` [Example 137], the IC50 came out at 71 nM. Under `CCc1ccc(Oc2ccnc(Nc3cccc(CCC(=O)O)c3)c2)c(-c2ccccn2)n1` [Example 138] stands 49 nM.

Turning to `CCc1nc(-c2ccccn2)c(Oc2ccnc(Nc3cccc(CCC(=O)O)c3)c2)cc1C` [Example 139], the half-maximal inhibitory concentration (IC50) turned out to be 42 nM. The same measure for `Cc1ccc(Oc2ccnc(Nc3cccc(CC(C)(C)C(=O)O)c3)c2)c(-c2ccccc2)n1` [Example 140]: 35 nM. Compound `Cc1cc(CC(C)(C)C(=O)O)cc(Nc2cc(Oc3ccc(C)nc3-c3ccccc3)ccn2)c1` [Example 141] had an IC50 of 12 nM. The compound `Cc1cc(Nc2cc(Oc3ccc(C)nc3-c3ccccc3)ccn2)cc(C(C)(C)C(=O)O)c1` [Example 142] yielded an IC50 of 7 nM. The compound `Cc1cc(Nc2cc(Oc3cc(C)c(C)nc3C3CCOCC3)ccn2)cc(C(C)(C)C(=O)O)c1` [Example 143] came in with an IC50 of 130 nM.

In turn, `CCc1ccc(Oc2ccnc(Nc3cc(C)cc(C(C)(C)C(=O)O)c3)c2)c(C)n1` [Example 144] showed an IC50 of 75 nM. On to `CCc1ccc(Oc2ccnc(Nc3cc(C)cc(CC(C)(C)C(=O)O)c3)c2)c(C)n1` [Example 145], for which the IC50 is 33 nM. `CCc1ccc(Oc2ccnc(Nc3cccc(CCC(=O)O)c3)c2)c(C)n1` [Example 146] had an IC50 of 21 nM.

`CCc1ccc(Oc2ccnc(Nc3cc(C)cc(CCC(=O)O)c3)c2)c(C)n1` [Example 147] gave an IC50 of 25 nM. As for `CCc1nc(C)c(Oc2ccnc(Nc3cc(C)cc(C(C)(C)C(=O)O)c3)c2)cc1C` [Example 148], the half-maximal inhibitory concentration (IC50) is 34 nM. Regarding `CCc1nc(C)c(Oc2ccnc(Nc3cccc(CCC(=O)O)c3)c2)cc1C` [Example 149], inhibition was half-maximal at 21 nM (IC50). The compound `CCc1nc(C)c(Oc2ccnc(Nc3cc(C)cc(CCC(=O)O)c3)c2)cc1C` [Example 150] returned an IC50 of 27 nM.

`CCc1nc(C)c(Oc2ccnc(Nc3cccc(CC(C)(C)C(=O)O)c3)c2)cc1C` [Example 151] showed a half-inhibitory concentration (IC50) of 30 nM. The compound `CCc1nc(C)c(Oc2ccnc(Nc3cc(C)cc(CC(C)(C)C(=O)O)c3)c2)cc1C` [Example 152] showed an IC50 of 20 nM.

`CCc1nc(C)c(Oc2ccnc(Nc3cc(C)cc(C(C)(C)C(=O)O)c3)c2)cc1Cl` [Example 153] registered an IC50 of 70 nM. Take `CCc1nc(C)c(Oc2ccnc(Nc3cccc(CCC(=O)O)c3)c2)cc1Cl` [Example 154]: the IC50 worked out at 16 nM.

`CCc1nc(C)c(Oc2ccnc(Nc3cccc(CC(C)(C)C(=O)O)c3)c2)cc1Cl` [Example 155] displayed an IC50 of 30 nM. In turn, `CCc1nc(C)c(Oc2ccnc(Nc3cc(C)cc(CC(C)(C)C(=O)O)c3)c2)cc1Cl` [Example 156] yielded an IC50 of 23 nM. `Cc1cc(Nc2cc(Oc3cc(Cl)c(C)nc3C)ccn2)cc(C(C)(C)C(=O)O)c1` [Example 157] yielded an IC50 of 27 nM. `Cc1cc(CC(C)(C)C(=O)O)cc(Nc2cc(Oc3cc(Cl)c(C)nc3C)ccn2)c1` [Example 158] yielded a half-inhibitory concentration (IC50) of 37 nM. As for `CC(C)(C(=O)CO)c1cccc(Nc2cc(Oc3cn(C4CC4)nc3C3CCOCC3)ccn2)c1` [Example 159], the IC50 stood at 140 nM.

`CC(C)(Cc1cccc(Nc2cc(Oc3cn(C4CC4)nc3C3CCOCC3)ccn2)c1)C(=O)O` [Example 160] returned an IC50 of 210 nM.

The compound `Cc1cc(CC(C)(C)C(=O)O)cc(Nc2cc(Oc3cn(C4CC4)nc3C3CCOCC3)ccn2)c1` [Example 162] gave an IC50 of 120 nM. Regarding `O=C(O)Cc1cccc(Nc2cc(Oc3cn(C4CC4)nc3C3CCOCC3)ccn2)c1` [Example 163], the IC50 came out at 3600 nM. For `Cc1cc(CC(=O)O)cc(Nc2cc(Oc3cn(C4CC4)nc3C3CCOCC3)ccn2)c1` [Example 164], it took 1110 nM to reach half-maximal inhibition (IC50). Take `Cc1cc(Nc2cc(Oc3cn(C(C)C)nc3C3CCOCC3)ccn2)cc(C(C)(C)C(=O)O)c1` [Example 167]: the IC50 came to 620 nM. The same measure for `CC(C)(Cc1cccc(Nc2cc(Oc3cn(C4CC4)nc3-c3ccccc3)ccn2)c1)C(=O)O` [Example 168]: 210 nM.

Consider `Cc1cc(Nc2cc(Oc3cn(C4CC4)nc3-c3ccccc3)ccn2)cc(C(C)(C)C(=O)O)c1` [Example 169], for which 7 nM corresponded to half-maximal inhibition (IC50).

With `Cc1cc(CC(C)(C)C(=O)O)cc(Nc2cc(Oc3cn(C4CC4)nc3-c3ccccc3)ccn2)c1` [Example 170], the midpoint of inhibition, the IC50, lay at 14 nM. Consider `O=C(O)CCc1cccc(Nc2cc(Oc3cn(C4CC4)nc3-c3ccccc3)ccn2)c1` [Example 171], for which the IC50 turned out to be 16 nM.

As for `Cc1cc(Nc2cc(Oc3cn(C4CCC4)nc3-c3ccccc3)ccn2)cc(C(C)(C)C(=O)O)c1` [Example 172], the IC50 was 120 nM. Under `O=C(O)CCc1cccc(Nc2cc(Oc3cn(C4CCC4)nc3-c3ccccc3)ccn2)c1` [Example 173] stands 26 nM; under `CCc1nc(C)c(Oc2ccnc(Nc3cccc(CC4(C(=O)O)COC4)c3)c2)cc1C` [Example 174, 3-(3-((4-((6-ethyl-2,5-dimethylpyridin-3-yl)oxy)pyridin-2-yl)amino)benzyl)oxetane-3-carboxylic acid], 57 nM. In turn, `Cc1cc(Oc2ccnc(Nc3cccc(CC(C)(C)c4nn[nH]n4)c3)c2)c(-c2ccccn2)nc1C` [Example 176] showed an IC50 of 150 nM. The compound `COc1ccc(Nc2cc(Oc3cc(C)c(C)nc3-c3ccccn3)ccn2)cc1CCc1nn[nH]n1` [Example 177] returned an IC50 of 150 nM. In turn, `COc1cc(CCc2nn[nH]n2)cc(Nc2cc(Oc3cc(C)c(C)nc3-c3ccccn3)ccn2)c1` [Example 178] gave an IC50 of 210 nM. In turn, `Cc1cc(Oc2ccnc(Nc3cc(F)cc(CCc4nn[nH]n4)c3)c2)c(-c2ccccn2)nc1C` [Example 179] registered an IC50 of 170 nM. The same measure for `Cc1cc(Oc2ccnc(Nc3cc(Cl)cc(CCc4nn[nH]n4)c3)c2)c(-c2ccccn2)nc1C` [Example 180]: 79 nM; for `CCc1cc(Oc2ccnc(Nc3cccc(CCc4nn[nH]n4)c3)c2)c(-c2ccccn2)nc1C` [Example 181]: 210 nM.

Turning to `Cc1nc(-c2ccccn2)c(Oc2ccnc(Nc3cccc(CCc4nn[nH]n4)c3)c2)cc1C1CC1` [Example 182], the IC50 came out at 640 nM. As to `Cc1nc(-c2ccccn2)c(Oc2ccnc(Nc3cccc(CCc4nn[nH]n4)c3)c2)cc1C(C)C` [Example 183], the IC50 is 240 nM. The compound `COc1ccc(Nc2cc(Oc3ccc(C)nc3-c3ccccn3)ccn2)cc1CCc1nn[nH]n1` [Example 184] yielded an IC50 of 330 nM. Take `CCc1nc(-c2ccccn2)c(Oc2ccnc(Nc3cccc(CCc4nn[nH]n4)c3)c2)cc1C` [Example 185]: the IC50 amounted to 39 nM. Compound `CCc1nc(C)c(Oc2ccnc(Nc3cc(C)cc(CCc4nn[nH]n4)c3)c2)cc1Cl` [Example 186] registered an IC50 of 51 nM. On to `CCc1ccc(Oc2ccnc(Nc3cc(C)cc(CCc4nn[nH]n4)c3)c2)c(C)n1` [Example 187], for which the 50% inhibitory concentration (IC50) was 27 nM. On to `Cc1cc(Oc2ccnc(Nc3cccc(CCc4nn[nH]n4)c3)c2)c(C)nc1C` [Example 188], for which the IC50 worked out at 73 nM.

`Cc1cc(CCc2nn[nH]n2)cc(Nc2cc(Oc3cc(Cl)c(C)nc3C)ccn2)c1` [Example 189] displayed an IC50 of 24 nM. For `CCc1nc(C)c(Oc2ccnc(Nc3cc(C)cc(CCc4nn[nH]n4)c3)c2)cc1C` [Example 190], 6 nM corresponded to half-maximal inhibition (IC50).

As to `Cc1ccc(Oc2ccnc(Nc3cccc(CCc4nn[nH]n4)c3)c2)c(C2CCOCC2)n1` [Example 191], the IC50 is 3690 nM. Consider `Cc1ccc(Oc2ccnc(Nc3cccc(CC(C)(C)c4nn[nH]n4)c3)c2)c(-c2ccccc2)n1` [Example 192], for which it took 65 nM to reach half-maximal inhibition (IC50). With `c1cc(Cc2nn[nH]n2)cc(Nc2cc(Oc3cn(C4CC4)nc3C3CCOCC3)ccn2)c1` [Example 193], the half-maximal inhibitory concentration (IC50) was more than 10000 nM. The compound `Cc1cc(Cc2nn[nH]n2)cc(Nc2cc(Oc3cn(C4CC4)nc3C3CCOCC3)ccn2)c1` [Example 194] registered an IC50 of 4140 nM. In turn, `CC(C)(c1cccc(Nc2cc(Oc3cn(C4CC4)nc3C3CCOCC3)ccn2)c1)c1nn[nH]n1` [Example 195] yielded an IC50 of 2230 nM. `Cc1cc(Nc2cc(Oc3cn(C4CC4)nc3C3CCOCC3)ccn2)cc(C(C)(C)c2nn[nH]n2)c1` [Example 196] came in with a 50% inhibitory concentration (IC50) of 270 nM. Consider `c1ccc(-c2nn(C3CC3)cc2Oc2ccnc(Nc3cccc(CCc4nn[nH]n4)c3)c2)cc1` [Example 197], for which the IC50 is 35 nM. The same measure for `c1ccc(-c2nn(C3CC3)cc2Oc2ccnc(Nc3cccc(Cc4nn[nH]n4)c3)c2)cc1` [Example 198]: 110 nM.

The values are drawn from US20220054465A1, “(PYRIDIN-2-YL)AMINE DERIVATIVES AS TGF-BETA R1 (ALK5) INHIBITORS FOR THE TREATMENT OF CANCER” (Nexys Therapeutics, Inc., priority 2018, published 2022).
